The record followed here is patent publication US4061639A, “Quinolinesulfonyl compounds” (The Dow Chemical Company, priority 1976, dated 1977).

Common to all, as to experiment: agar dilution antimicrobial test (growth inhibition)
What all share (type): cell-based
(In general: Agar dilution tests growth on a series of plates holding different concentrations.)

One assay has as its system A. aerogenes. Particulars: Klebsiella aerogenes, read-out: Percent Growth Inhibition. The method, then:
(§1) In representative activity tests, 8-quinolinesulfonyl bromide is dispersed in warm melted nutrient agar which is then poured into petri dishes and allowed to solidify, the quinoline compound being employed in an amount sufficient to provide from 10 to 500 parts by weight thereof per million parts (ppm) of the ultimate agar composition. The surface of the agar is then inoculated with a variety of bacterial and fungal pest organisms, and the inoculated plates are incubated under conditions conducive to bacterial and fungal growth. Similar check plates in which the agar contains no active quinoline or other toxic compound are similarly inoculated and incubated.
(§2) In such operations, 8-quinolinesulfonyl bromide gave 100% growth inhibition (kills) and control of the following organisms at the indicated concentrations in parts per million:
(§3) In comparative operations, 8-quinolinesulfonyl chloride was tested for antimicrobial activity at 500 ppm using identical agar dilution tests. The following table indicates the percent growth inhibition of the following organisms: […]

The next assay concerns B. subtilis. The note with it: Bacillus subtilis, read-out: Percent Growth Inhibition. As to the method:
as §1, §2, §3

The test system of the next assay is C. albicans. The note with it: Candida albicans, read-out: Percent Growth Inhibition. The method, then:
as §1, §2, §3

In another assay the test system is C. ips. The note with it: read-out: Percent Growth Inhibition. As to the method: as §1, §2, §3
The subject of a further assay is C. pelliculosa. The note with it: Hansenula anomala, read-out: Percent Growth Inhibition. The method, then:
as §1, §2, §3

The next assay concerns E. coli. Particulars: Escherichia coli, read-out: Percent Growth Inhibition. As to the method:
as §1, §2, §3

Another assay concerns M. phlei. The note with it: Mycolicibacterium phlei, read-out: Percent Growth Inhibition. As to the method: as §1, §2, §3
The test system of the next assay is P. Str-10. The note with it: read-out: Percent Growth Inhibition. The method, then:
as §1, §2, §3

The next assay relates to P. pullulans. Particulars: read-out: Percent Growth Inhibition. As to the method: as §1, §2, §3
For a further assay, the system named is R. nigricans. The note with it: Rhizopus stolonifer, read-out: Percent Growth Inhibition. As to the method:
as §1, §2, §3

A further assay has as its system S. aureus. Particulars: Staphylococcus aureus, read-out: Percent Growth Inhibition. As to the method:
as §1, §2, §3

For the next assay, the system named is S. typhosa. Particulars: read-out: Percent Growth Inhibition. As to the method: as §1, §2, §3
For assay [1], the system named is Trichoderm Sp. Madison P-42. Particulars: read-out: Percent Growth Inhibition. As to the method:
as §1, §2, §3

SMILES strings stand for the structures.

One may read the inhibition as the percentage by which the read-out fell short of the control.

As for `O=S(=O)(Cl)c1cccc2cccnc12` [8-Quinolinesulfonyl Chloride, 8-quinolinesulfonyl chloride], the inhibition at 500 ppm in the assay with A. aerogenes, with B. subtilis, with C. albicans, with C. ips, in the assay with C. pelliculosa and with E. coli was 0% each time. Moreover, the inhibition at 500 ppm was found to be 50% with M. phlei; 0% in the assay with P. Str-10; 0% in the assay on P. pullulans; 0% in the assay on R. nigricans; 0% in the assay with S. aureus; 0% with S. typhosa. Also, the inhibition at 500 ppm in assay [1] worked out at 0%.
